{"source": "paper PMC12186697", "about": "“HypoxyStat, a small-molecule form of hypoxia therapy that increases oxygen-hemoglobin affinity” (Cell, 2025)", "key": {"[1]": {"target": "T1, hemoglobin (Hb) in human red blood cells (Homo sapiens, UniProt P69905)", "T1 construct": "incubated for at least one hour at 37C with whole blood before Hemox analysis; endogenous in cells; host or cells: human red blood cells / whole blood", "T1 sequence (P69905 2-142 limits assumed)": "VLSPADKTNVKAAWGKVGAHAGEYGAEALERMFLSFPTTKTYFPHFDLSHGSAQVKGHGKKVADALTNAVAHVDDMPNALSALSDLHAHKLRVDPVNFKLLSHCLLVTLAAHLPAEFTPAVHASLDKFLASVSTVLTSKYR", "T1 sequence (P68871 2-147 partner limits assumed)": "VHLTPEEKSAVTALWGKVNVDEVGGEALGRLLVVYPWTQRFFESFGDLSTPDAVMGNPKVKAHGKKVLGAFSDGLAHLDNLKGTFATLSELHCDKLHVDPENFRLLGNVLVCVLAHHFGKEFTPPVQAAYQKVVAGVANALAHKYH", "assay": "Oxy-hemoglobin dissociation curve (Hemox Analyzer), p50", "assay_type": "biochemical", "procedure": "One of the most extensively studied compounds for sickle cell anemia is GBT-440 (Voxelotor) (Figure 1B).[25] The extent of left-shifting can be assessed by determining the p50 or the partial pressure of oxygen at which half of the total Hb pool is bound to oxygen. We incubated human red blood cells with GBT-440 and observed a ~75% decrease in p50 (from ~28 to ~7 mmHg), consistent with previously reported values (Figure 1D). Experiments were performed using a HemOx analyzer that monitors oxygen saturation via Hb absorbance across a range of dissolved oxygen tensions. Upon further review of the sickle cell anemia literature, we found another compound, hereafter termed HypoxyStat (Figure 1B), which appeared to have a similar p50 as GBT-440.[26] We confirmed that HypoxyStat induced an ~82% decrease in p50 (Figure 1D).\nOxy-hemoglobin dissociation analysis was performed by the UCSF RBC laboratory using the TCS Hemox Analyzer (TCS Medical Products Company, Huntington Valley, PA). Initial pO2 is set to 160 mmHg. Hemoglobin is fully oxygenated under these conditions (HbO% =100). Replacement of air with nitrogen lowers pO2 and is measured by Clark electrode along with the change in the absorbance spectrum of hemoglobin. At a pO2 of 0 mmHg, hemoglobin is fully deoxygenated (HbO% =0). The relation between pO2 and HbO% is plotted, and the pO2 at which HbO% = 50% is defined as P50. The typical sigmoid de-oxygenation curve of normal blood with a P50 of 26–28 mmHg is used as a control for incubation conditions and to ensure proper function of the Hemox analyzer. For left-shifter comparison, the compounds were dissolved in HEPES buffered saline and then incubated for at least one hour at 37C with whole blood before Hemox analysis. A control of whole blood incubated with vehicle is also reported."}, "[2]": {"tested_on": "25+ potential off-targets", "assay": "Reaction Bio InVEST off-target panel", "details": "duplicate; significance = 50% or greater inhibition in both replicates", "procedure": "This assay utilizes colorimetry to monitor the activity of acetylcholinesterase (AChE). Enzyme activity is measured by the conversion of acetylthiocholine to thiocholine, which is detected through an enhanced Ellman’s reaction. In each well, 20 μL of Assay Buffer (75.4 mM Na2HPO4, 24.6 mM NaH2PO4, pH 7.5) was added to wells designated as background/control (no enzyme). Subsequently, 20 μL of 0.2 U/mL AChE was added to the remaining wells. The reaction mixture was incubated at room temperature for 15 minutes on a shaker to allow for enzyme and drug interaction. To initiate the improved Ellman’s reaction, 30 μL of buffer containing 650 μM DTNB and 650 μM acetylthiocholine was added to each well. The color intensity, which is proportional to enzyme activity, was measured at 412 nm using an Envision 2105 plate reader.\nThe peroxidase activity is measured colorimetrically by monitoring the appearance of oxidized TMPD at 590 nm. […] Absorbance was then measured at 590 nm using an Envision 2105 plate reader (Revvity).\nThis assay uses fluorescence polarization to monitor binding to the hERG channel. […] Fluorescence polarization was measured at Ex/Em = 531 nm FP/595 nm P & S, and mP values were calculated.\nThe ADP-Glo™ assay is a luminescent method used to monitor ADP-producing biochemical reactions. […] Luminescence was then measured. […]"}, "Ndufs4 KO mouse": {"tested_on": "Ndufs4 KO mouse", "assay": "Ndufs4 KO mouse model of Leigh syndrome (survival, body weight, temperature, behavior, neuropathology)", "assay_type": "in vivo", "details": "daily HypoxyStat initiated at P50"}}}
{"molecule": "O=Cc1ccccc1C(=O)N1CCCC[C@H]1COc1cccc(O)c1C=O", "note": "[HypoxyStat]", "values": [{"measurement": "p50", "setting": "[1]; human red blood cells incubated 1 h with 10 mM compound, vehicle ~28 mmHg", "value": 5.6, "unit": "mmHg"}, {"measurement": "decrease in p50", "setting": "[1]; human red blood cells incubated with compound, vs vehicle", "value": "~ 82%"}, {"measurement": "off-target inhibition or binding, InVEST panel", "setting": "[2]", "value": "All tests were negative"}, {"measurement": "reversal of body weight loss, impaired behavior and neurological lesions in late-stage KO mice", "setting": "Ndufs4 KO mouse", "value": "reversed multiple other disease presentations"}, {"measurement": "lifespan of late-stage Ndufs4 KO mice", "setting": "Ndufs4 KO mouse; p < 0.05 Mantel-Cox", "value": "significantly extended the lifespan"}]}
